Measurements from patent US20260234157A1, “COMPOUND AND METHOD FOR TARGETED DEGRADATION OF ANDROGEN RECEPTOR” (Gan & Lee Pharmaceuticals Co., Ltd., priority 2023, published 2026).
Substitutions are numbered along the chain they refer to. Read-outs that look alike come from different tables or passages of the source.

Columns and labels:
Format in all cases: cell-based
LNCaP FGC cells = assay: Inhibition of proliferation of LNCaP cells (WST-8); settings: Homo sapiens, LNCaP, 96 h
Description: The cells were cultured in a cell culture incubator with 5% CO2 at 37° C. overnight. […] On the sixth day, 96 well plates were taken out, and 20 μL of WST-8 (Beytime, C0040) reagent was added to each well.

VCaP cells = assay: Inhibition of proliferation of VCaP cells (WST-8); settings: Homo sapiens, read-out: IC50 for inhibiting the proliferation of VCaP cells
Description: The inhibitory activity of the compounds disclosed in the present disclosure on the proliferation of VCaP cells
On the first day of the experiment, […] were inoculated in 96 well plates at a density of 15000 cells per well using DMEM medium containing 10% fetal bovine serum, with 100 μL of cell suspension per well. The cells were cultured in a cell culture incubator with 5% CO2 at 37° C. overnight. […] On the ninth day, 96 well plates were taken out, and 20 μL of WST-8 (Beytime, C0040) reagent was added to each well.

AR protein [1] = molecular target: T1, AR protein (Homo sapiens, UniProt P10275); assay: Degradation of AR protein in VCaP cells (Western blot); settings: 8 hours
T1 construct: degradation activity of the compounds disclosed in the present disclosure on AR protein in VCaP cells; host or cells: VCaP
T1 sequence (P10275 1-920): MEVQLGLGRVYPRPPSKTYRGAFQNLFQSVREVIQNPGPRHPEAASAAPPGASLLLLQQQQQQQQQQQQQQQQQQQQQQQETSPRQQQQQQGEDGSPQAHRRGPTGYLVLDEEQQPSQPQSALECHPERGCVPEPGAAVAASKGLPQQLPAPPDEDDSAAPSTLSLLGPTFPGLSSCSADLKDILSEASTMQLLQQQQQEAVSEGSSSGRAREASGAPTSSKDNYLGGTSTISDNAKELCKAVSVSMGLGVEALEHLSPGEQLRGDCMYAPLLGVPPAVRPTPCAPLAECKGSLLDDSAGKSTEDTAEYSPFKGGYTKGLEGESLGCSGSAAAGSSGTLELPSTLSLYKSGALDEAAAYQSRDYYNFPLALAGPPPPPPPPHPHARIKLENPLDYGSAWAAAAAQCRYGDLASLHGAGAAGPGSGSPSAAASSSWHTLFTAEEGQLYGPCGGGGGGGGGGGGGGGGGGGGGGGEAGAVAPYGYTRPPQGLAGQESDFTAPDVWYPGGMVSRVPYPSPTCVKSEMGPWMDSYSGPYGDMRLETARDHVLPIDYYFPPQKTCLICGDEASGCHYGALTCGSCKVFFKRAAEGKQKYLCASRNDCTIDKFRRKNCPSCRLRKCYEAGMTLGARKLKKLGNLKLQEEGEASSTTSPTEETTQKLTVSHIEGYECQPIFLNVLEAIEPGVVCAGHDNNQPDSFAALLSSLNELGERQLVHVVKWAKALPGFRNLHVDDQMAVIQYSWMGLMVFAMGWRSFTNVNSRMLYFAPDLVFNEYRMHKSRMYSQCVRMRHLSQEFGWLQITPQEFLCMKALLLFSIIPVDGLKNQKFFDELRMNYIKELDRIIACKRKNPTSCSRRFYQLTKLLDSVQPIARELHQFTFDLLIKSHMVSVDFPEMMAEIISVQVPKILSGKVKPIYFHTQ
Outline: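 Western blot readout: AR band grayscale normalised to GAPDH, used to derive degradation rate. Lysates came from VCaP cells exposed to compound for 8 h, with solvent controls run in parallel.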

AR protein [2] = molecular target: T2, AR protein (Homo sapiens, UniProt P10275, T878A); assay: Degradation of AR protein in LNCaP cells (Western blot); settings: LNCaP cells, 8 hours, Western blot grayscale, GAPDH internal reference
T2 construct: degradation activity of the compounds disclosed in the present disclosure on AR protein in LNCaP cells; host or cells: LNCaP FGC
T2 sequence (P10275 1-920 T878A): T1 sequence (P10275 1-920) with T878A
Outline: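 Percent AR degradation was derived from GAPDH-normalised Western blot band intensities (infrared detection) in LNCaP lysates.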

[3] = LNCaP FGC cells, 96 hours, WST-8 absorbance at 450 nm, read-out: IC50 for inhibiting the proliferation of LNCaP cells
[4] = VCaP cells, 168 hours, WST-8 absorbance at 450 nm
[5] = read-out: IC50 for inhibiting the proliferation of LNCaP cells, LNCaP FGC cells, 96 hours, WST-8 absorbance at 450 nm

| Structure (SMILES) | IC50 (LNCaP FGC cells; [3]) | IC50 (VCaP cells; [4]) | IC50 (LNCaP FGC cells; [5]) | IC50 (VCaP cells; VCaP, 168 h) | further results |
| --- | --- | --- | --- | --- | --- |
| CC1(CN2CC3(CCc4cc5c(cc4O3)CN(C3CCC(=O)NC3=O)C5=O)C2)CCN(c2ccc(C(=O)N[C@H]3CC[C@H](Oc4ccc(C#N)c(Cl)c4)CC3)nn2)CC1 (stereo partly drawn) [Compound 80] | 0.73 µM | 2.83 µM | – | – | – |
| N#Cc1ccc(O[C@H]2CC[C@H](NC(=O)c3ccc(N4CCC5(CC4)CC(N4CCC6(CC4)COc4c6ccc6c4C(=O)N(C4CCC(=O)NC4=O)C6=O)C5)nn3)CC2)cc1Cl (stereo partly drawn) [Compound 143] | 0.35 µM | 0.02 µM | – | – | – |
| N#Cc1ccc(O[C@H]2CC[C@H](NC(=O)c3ccc(N4CCC(F)(CN5CCC6(CCc7ccc8c(c7O6)C(=O)N(C6CCC(=O)NC6=O)C8)CC5)CC4)nn3)CC2)cc1Cl (stereo partly drawn) [Compound 163] | 13.6 µM | 0.65 µM | – | – | – |
| N#Cc1ccc(O[C@H]2CC[C@H](NC(=O)c3ccc(N4CC[C@@H](CN5CCC6(CCc7cc8c(cc7O6)C(=O)N(C6CCC(=O)NC6=O)C8=O)CC5)C4)nn3)CC2)cc1Cl (stereo partly drawn) [Compound 21] | 0.56 µM | 0.38 µM | – | – | – |
| COC1(CN2CC3(CCc4cc5c(cc4O3)C(=O)N(C3CCC(=O)NC3=O)C5=O)C2)CCN(C(=O)c2ccc(N3C(=S)N(c4ccc(C#N)c(C(F)(F)F)c4)C(=O)C3(C)C)cc2F)CC1 (stereo not drawn) [Compound 88] | 0.53 µM | 0.17 µM | – | – | – |
| CC1(C)C(=O)N(c2ccc(C#N)c(C(F)(F)F)c2)C(=S)N1c1ccc(C(=O)N2CC(N3CCC4(CC3)COc3cc5c(cc3C4)C(=O)N(C3CCC(=O)NC3=O)C5=O)C2)c(F)c1 (stereo not drawn) [Compound 112] | – | – | 8.18 µM | 5.12 µM | – |
| COC1(CN2CCC3(CCc4cc5c(cc4O3)C(=O)N(C3CCC(=O)NC3=O)C5)CC2)CCN(c2ccc(C(=O)N[C@H]3CC[C@H](Oc4ccc(C#N)c(Cl)c4)CC3)nn2)CC1 (stereo partly drawn) [Compound 131] | 4.55 µM | 2.27 µM | – | – | – |
| COC1(CN2CC3(CCc4cc5c(cc4O3)CN(C3CCC(=O)NC3=O)C5=O)C2)CCN(C(=O)c2ccc(N3C(=S)N(c4ccc(C#N)c(C(F)(F)F)c4)C(=O)C3(C)C)cc2F)CC1 (stereo not drawn) [Compound 89] | – | – | 3.24 µM | 0.35 µM | – |
| CC1(C)C(=O)N(c2ccc(C#N)c(C(F)(F)F)c2)C(=S)N1c1ccc(C(=O)N2CCC(F)(CN3CC4(CCc5cc6c(cc5O4)C(=O)N(C4CCC(=O)NC4=O)C6)C3)CC2)c(F)c1 (stereo not drawn) [Compound 81] | – | – | 3.86 µM | 0.03 µM | – |
| CC1(C)C(=O)N(c2ccc(C#N)c(C(F)(F)F)c2)C(=S)N1c1ccc(C(=O)N2CCC(CN3CCC4(CC3)COc3cc5c(cc3C4)C(=O)N(C3CCC(=O)NC3=O)C5=O)CC2)c(F)c1 (stereo not drawn) [Compound 82] | – | – | 3.39 µM | 4.26 µM | – |
| CC1(C)C(=O)N(c2ccc(C#N)c(C(F)(F)F)c2)C(=S)N1c1ccc(C(=O)N2CC3(CC(N4CCC5(CCc6cc7c(cc6O5)C(=O)N(C5CCC(=O)NC5=O)C7=O)CC4)C3)C2)c(F)c1 (stereo not drawn) [Compound 100] | – | – | 27.9 µM | 0.62 µM | – |
| COc1cc(O[C@H]2CC[C@H](NC(=O)c3cnc(N4CCC(CN5CC6(CCc7cc8c(cc7O6)C(=O)N(C6CCC(=O)NC6=O)C8=O)C5)(OC)CC4)nc3)CC2)ccc1C#N (stereo partly drawn) [Compound 232] | – | 4.41 µM | – | – | inhibition at 0.01 µM (AR protein [1]; compound at 10 nM, read-out: Degradation rate of the AR protein in VCaP cells, 10 nM (%)): 37%; inhibition at 0.1 µM (AR protein [1]; compound at 100 nM, read-out: Degradation rate of the AR protein in VCaP cells, 100 nM (%)): 43%; inhibition at 0.01 µM (AR protein [2]; compound 10 nM, read-out: Degradation rates of the AR protein in LNCaP cells, 10 nM (%)): 33%; inhibition at 0.1 µM (AR protein [2]; compound 100 nM, read-out: Degradation rates of the AR protein in LNCaP cells, 100 nM (%)): 36% |
| CC1(C)C(=O)N(c2ccc(C#N)c(C(F)(F)F)c2)C(=S)N1c1ccc(C(=O)N2CCC(CN3CC4(CCc5cc6c(cc5O4)CN(C4CCC(=O)NC4=O)C6=O)C3)CC2)c(F)c1 (stereo not drawn) [Compound 124] | 7.91 µM | 2.96 µM | – | – | – |
| CC1(C)C(=O)N(c2ccc(C#N)c(C(F)(F)F)c2)C(=S)N1c1ccc(C(=O)N2CCC(CN3CCC4(CCc5cc6c(cc5O4)CN(C4CCC(=O)NC4=O)C6=O)CC3)CC2)c(F)c1 (stereo not drawn) [Compound 85] | – | – | 5.34 µM | 7.4 µM | – |
| COC1(CN2CCC3(CC2)Cc2cc4c(cc2O3)C(=O)N(C2CCC(=O)NC2=O)C4=O)CCN(c2ccc(C(=O)N[C@H]3CC[C@H](Oc4ccc(C#N)c(Cl)c4)CC3)nn2)CC1 (stereo partly drawn) [Compound 199] | 1.11 µM | 0.57 µM | – | – | – |
| CC1(C)C(=O)N(c2ccc(C#N)c(C(F)(F)F)c2)C(=S)N1c1ccc(C(=O)N2CCC3(CCC(N4CCC5(CC4)COc4cc6c(cc4C5)C(=O)N(C4CCC(=O)NC4=O)C6=O)CC3)C2)c(F)c1 (stereo not drawn) [Compound 130] | – | – | 2.66 µM | 3.61 µM | – |
| CC1(C)C(=O)N(c2ccc(C#N)c(C(F)(F)F)c2)C(=S)N1c1ccc(C(=O)N2CCC3(CC2)CC(N2CCC4(CC2)COc2cc5c(cc2C4)C(=O)N(C2CCC(=O)NC2=O)C5=O)C3)c(F)c1 (stereo not drawn) [Compound 123] | – | – | 2.71 µM | 3.38 µM | – |
| CC1(C)C(=O)N(c2ccc(C#N)c(C(F)(F)F)c2)C(=S)N1c1ccc(C(=O)N2CC3(CCC(N4CCC5(CC4)COc4cc6c(cc4C5)C(=O)N(C4CCC(=O)NC4=O)C6=O)CC3)C2)c(F)c1 (stereo not drawn) [Compound 86] | – | – | 4.53 µM | 2.49 µM | – |
| CC1(CN2CCC3(CC2)COc2cc4c(cc2C3)C(=O)N(C2CCC(=O)NC2=O)C4=O)CCN(C(=O)c2ccc(N3C(=S)N(c4ccc(C#N)c(C(F)(F)F)c4)C(=O)C3(C)C)cc2F)CC1 (stereo not drawn) [Compound 114] | – | – | 7.63 µM | 3.29 µM | – |
| CC1(C)C(=O)N(c2ccc(C#N)c(C(F)(F)F)c2)C(=S)N1c1ccc(C(=O)N2CC[C@@H](CN3CCC4(CC3)COc3cc5c(cc3C4)C(=O)N(C3CCC(=O)NC3=O)C5=O)C2)c(F)c1 (stereo partly drawn) [Compound 83] | – | – | 7.06 µM | 9.73 µM | – |
| CC1(C)C(=O)N(c2ccc(C#N)c(C(F)(F)F)c2)C(=S)N1c1ccc(C(=O)N2CCC(CN3CCN(c4cc5c(cc4F)C(=O)N(C4CCC(=O)NC4=O)C5=O)CC3)CC2)c(F)c1 (stereo not drawn) [Compound 87] | 5.16 µM | 4.19 µM | – | – | – |
